Experimental data: patent US20240116910A1, “Heterocycles as WIP1 Inhibitors” (PMV Pharmaceuticals, Inc., priority 2022, published 2024)

Molecular target: recombinant His-tag Wip1(2-420) protein (amino acids #2-420) (Homo sapiens (Human), UniProt O15297)
Assay: Wip1(2-420) phosphatase enzyme FDP assay
Format: biochemical
Conditions: fluorescein diphosphate (FDP) substrate, RT 2 hours, fluorescence Ex485/Em535; read-out: WIP1 (Truncated 2-420) FDP Assay: IC50
Method: The Human Wip1 (2-420, aa 2-420) or Wip1 full length (aa 1-605) DNA sequence was codon optimized and synthesized by Genscript for insect cell expression. The open reading frame of Wip1(2-420) with a N-terminal-His6 affinity tag followed by a TEV cleavage site was subcloned sites into the pFastBac1 expression vector. The recombinant bacmid DNA was transfected in Sf9 insect cells for baculovirus production. After 72 hours infection, the Sf9 cells were harvested by centrifugation and resuspended in lysis buffer containing 50 mM Tris/HCl, pH 8.0, 500 mM NaCl, 20% glycerol, Benzonase 0.5% CHAPS and Roche cOmplete™ EDTA free protease inhibitors. Cells were disrupted with microfluidizer and the debris was removed by centrifugation at 185,000 g for 1 hour. The supernatant was subjected to HisTrap FF for affinity purification. Proteins were eluted with a linear gradient of 0-500 mM imidazole in HisTrap buffer containing 50 mM Tris/HCl, pH 8.0, 500 mM NaCl and 20% glycerol, 0.05% CHAPS. The eluted protein was dialyzed against dialysis buffer (20 mM MES, 100 mM NaCl, 20% glycerol, 0.5 mM TCEP, 0.05% CHAPS) followed purification via HiTrap SP HP column. The protein was eluted with a gradient of 100 mM-2 M NaCl in dialysis buffer. His6-[…] was finally concentrated and loaded onto a size-exclusion column (NiLoad 16/600 Superdex 200 pg, GE Healthcare) pre-equilibrated with 50 mM MOPS (pH 7.5), 200 mM NaCl, 20% glycerol, 1 mM TCEP, 0.05% CHAPS and 0.1 mM EGTA. The peak fractions containing purified Nis6-Wip1(2-420) were pooled and concentrated to 1.0 mg/mL and flash frozen at −80° C.
Wip1 Length and Wip1(2-420) Phosphatase Enzyme FDP Assays.
Test compounds (252 mM stock in DMSO) were diluted 3 folds in series in DMSO and 1.2 μl per well were added into 384-well polypropylene black plates (Nunc). Twelve μl per well of Assay Buffer (100 mM NaCl, 50 mM MOPS, pH 7.5, 0.8 mM CHAPS, 0.1 mM EGTA, 30 mM MgCl2, 0.3 mM TCEP, 0.2 mg/mL BSA) was added followed by […] per well of 50.4 nM recombinant His-tag Wip1 full length protein (amino acids #1-605) or recombinant His-tag Wip1(2-420) protein (amino acids #2-420) in Assay Buffer and the plate was incubated at RT (22° C.) for 5 min. Ten mM of fluorescein diphosphate (FDP) in DMSO was diluted to […] in Assay Buffer and […] per well was added to the plate and incubated at RT (22° C.) for 2 hours. […] per well of 64.1 mM EDTA in water were added to stop the enzyme reaction. The plate was centrifuged at 1,200 rpm (Eppendorf 5810R Plate centrifuge) for 1 minute and fluorescence intensity (Ex485/Em535) was measured on Perkin Elmer Victor Reader. EC50 values were calculated using either Prism (GraphPad) or ActivityBase software (IDBS), The IC50 results are provided in Table M.

Chain of recombinant His-tag Wip1(2-420) protein (amino acids #2-420) (O15297 2-420): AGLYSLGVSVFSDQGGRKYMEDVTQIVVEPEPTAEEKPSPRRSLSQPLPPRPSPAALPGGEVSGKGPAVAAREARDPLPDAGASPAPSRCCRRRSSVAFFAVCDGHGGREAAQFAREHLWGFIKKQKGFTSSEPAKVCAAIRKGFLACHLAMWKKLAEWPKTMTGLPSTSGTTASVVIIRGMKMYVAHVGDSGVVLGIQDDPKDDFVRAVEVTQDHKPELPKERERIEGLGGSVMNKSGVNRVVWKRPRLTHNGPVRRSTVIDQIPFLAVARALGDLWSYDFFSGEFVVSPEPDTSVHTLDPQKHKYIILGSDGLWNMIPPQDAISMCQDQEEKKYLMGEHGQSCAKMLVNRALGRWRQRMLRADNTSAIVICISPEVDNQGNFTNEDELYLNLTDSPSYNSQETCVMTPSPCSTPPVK

IC50 [nM] | Structure (SMILES)
5 | C[C@H](Nc1cc(Cl)cnc1C(N)=O)c1ccc(C(=O)N[C@@H](CC2CCCC2)C(=O)NC2CC2)s1 [Compound 228, 5-chloro-3-{[(1S)-1-(5-{[(1S)-2-cyclopentyl-1-(cyclopropylcarbamoyl)ethyl]carbamoyl}thiophen-2-yl)ethyl]amino}pyridine-2-carboxamide]
301 | COc1ncc(Cl)cc1N[C@H](C)c1ccc(C(=O)N[C@@H](CC2CCCC2)C(=O)NC2CC2)s1 [Compound 35, (2S)-2-({5-[(1R)-1-[(5-chloro-2-methoxypyridin-3-yl)amino]ethyl]thiophen-2-yl}formamido)-3-cyclopentyl-N-cyclopropylpropanamide]
11 | COCc1ncc(Cl)cc1N[C@@H](C)c1ccc(C(=O)N[C@@H](CC2CCCC2)C(=O)NC2CC2)s1 [Compound 226, (2S)-2-({5-[(1S)-1-{[5-chloro-2-(methoxymethyl)pyridin-3-yl]amino}ethyl]thiophen-2-yl}formamido)-3-cyclopentyl-N-cyclopropylpropanamide]
5 | COC(=O)[C@H]1C[C@H](NC(=O)[C@H](CC2CCCC2)NC(=O)c2ccc([C@H](C)Nc3cc(Cl)cnc3C)s2)C1 [Compound 94, methyl (1r,3r)-3-[(2S)-2-({5-[(1S)-1-[(5-chloro-2-methylpyridin-3-yl)amino]ethyl]thiophen-2-yl}formamido)-3-cyclopentylpropanamido]cyclobutane-1-carboxylate]
19 | CC(Nc1cc(Cl)cnc1C(F)(F)F)c1ccc(C(=O)N[C@@H](CC2CCCC2)C(=O)NC2CC2)s1 (stereo partly drawn) [Compound 202, (2S)-2-{[5-(1-{[5-chloro-2-(trifluoromethyl)pyridin-3-yl]amino}ethyl)thiophen-2-yl]formamido}-3-cyclopentyl-N-cyclopropylpropanamide]
408 | CC(Nc1cc(Cl)cnc1C(C)(C)C#N)c1ccc(C(=O)N[C@@H](CC2CCCC2)C(=O)NC2CC2)s1 (stereo partly shown) [Compound 192]
6 | Cc1ncc(Cl)cc1N[C@@H](C)c1ccc(C(=O)N[C@@H](CC2CCCC2)C(=O)N[C@H]2C[C@@H](C#N)C2)s1 [Compound 221, (2S)-2-({5-[(1S)-1-[(5-chloro-2-methylpyridin-3-yl)amino]ethyl]thiophen-2-yl}formamido)-3-cyclopentyl-N-[(1s,3s)-3-cyanocyclobutyl]propanamide]

Further lines, the compound ahead of its results:

Structure (SMILES) | IC50 [nM]
Cc1ncc(Cl)cc1N[C@@H](C)c1ccc(C(=O)N[C@@H](CC2CCCC2)C(=O)Nc2ccc3ncc(C#N)cc3c2)s1 [Compound 148, (2S)-2-({5-[(1S)-1-[(5-chloro-2-methylpyridin-3-yl)amino]ethyl]thiophen-2-yl}formamido)-N-(3-cyanoquinolin-6-yl)-3-cyclopentylpropanamide] | 6
Cc1ncc(Cl)cc1N[C@@H](C)c1ccc(C(=O)N[C@@H](CC2CCCC2)C(=O)Nc2ccc3c(c2)N(C)CCC3)s1 [Compound 167, (2S)-2-({5-[(1S)-1-[(5-chloro-2-methylpyridin-3-yl)amino]ethyl]thiophen-2-yl}formamido)-3-cyclopentyl-N-(1-methyl-1,2,3,4-tetrahydroquinolin-7-yl)propanamide] | 11
Cc1ncc(Cl)cc1N[C@@H](C)c1ccc(C(=O)N[C@@H](CC2CC3CC3C2)C(=O)NC2CC2)s1 (stereo partly drawn) [Compound 201, (2S)-3-{bicyclo[3.1.0]hexan-3-yl}-2-({5-[(1S)-1-[(5-chloro-2-methylpyridin-3-yl)amino]ethyl]thiophen-2-yl}formamido)-N-cyclopropylpropanamide] | 7
Cc1ncc(Cl)cc1N[C@@H](C)c1ccc(C(=O)N[C@@H](CC2CCCC2)C(=O)Nc2ccc3ncc(F)cc3c2)s1 [Compound 178, (2S)-2-({5-[(1S)-1-[(5-chloro-2-methylpyridin-3-yl)amino]ethyl]thiophen-2-yl}formamido)-3-cyclopentyl-N-(3-fluoroquinolin-6-yl)propanamide] | 5
Cc1ncc(Cl)cc1N[C@@H](C)c1ccc(C(=O)N[C@@H](CC2CCCC2)C(=O)NC2CC3(COC3)C2)s1 [Compound 237, (2S)-2-({5-[(1S)-1-[(5-chloro-2-methylpyridin-3-yl)amino]ethyl]thiophen-2-yl}formamido)-3-cyclopentyl-N-{2-oxaspiro[3.3]heptan-6-yl}propanamide] | 8
Cc1ncc(Cl)cc1N[C@@H](C)c1ccc(C(=O)N[C@@H](CCC(C)C)C(=O)NC2CC2)s1 [Compound 217, (2S)-2-({5-[(1S)-1-[(5-chloro-2-methylpyridin-3-yl)amino]ethyl]thiophen-2-yl}formamido)-N-cyclopropyl-5-methylhexanamide] | 27
Cc1ncc(Cl)cc1NC(C)(C)c1ccc(C(=O)N[C@@H](CC2CCCC2)C(=O)NC23CC(C#N)(C2)C3)s1 [Compound 266, (2S)-2-[(5-{2-[(5-chloro-2-methylpyridin-3-yl)amino]propan-2-yl}thiophen-2-yl)formamido]-N-{3-cyanobicyclo[1.1.1]pentan-1-yl}-3-cyclopentylpropanamide] | 20
Cc1ncc(Cl)cc1N[C@@H](C)c1ccc(C(=O)N[C@@H](CC2CCCC2)C(=O)Nc2ccn(C)n2)s1 [Compound 154, (2S)-2-({5-[(1S)-1-[(5-chloro-2-methylpyridin-3-yl)amino]ethyl]thiophen-2-yl}formamido)-3-cyclopentyl-N-(1-methyl-1H-pyrazol-3-yl)propanamide] | 10
Cc1ncc(Cl)cc1N[C@@H](C)c1ccc(C(=O)N[C@@H](CC2CCC3CC32)C(=O)NC23CC(C#N)(C2)C3)s1 (stereo partly drawn) [Compound 111, (2S)-3-{bicyclo[3.1.0]hexan-2-yl}-2-({5-[(1S)-1-[(5-chloro-2-methylpyridin-3-yl)amino]ethyl]thiophen-2-yl}formamido)-N-{3-cyanobicyclo[1.1.1]pentan-1-yl}propanamide] | 12
C[C@@H](Nc1cc(Cl)cnc1C(N)=O)c1ccc(C(=O)N[C@@H](CC2CCCC2)C(=O)NC23CC(C2)C3)s1 [Compound 132, 3-{[(1R)-1-(5-{[(1S)-1-({bicyclo[1.1.1]pentan-1-yl}carbamoyl)-2-cyclopentylethyl]carbamoyl}thiophen-2-yl)ethyl]amino}-5-chloropyridine-2-carboxamide] | 76
Cc1cc(NC(=O)[C@H](CCC(C)(C)C)NC(=O)c2ccc([C@H](C)Nc3cc(Cl)cnc3C)s2)ccn1 [Compound 157, (2S)-2-({5-[(1S)-1-[(5-chloro-2-methylpyridin-3-yl)amino]ethyl]thiophen-2-yl}formamido)-5,5-dimethyl-N-(2-methylpyridin-4-yl)hexanamide] | 9
Cc1ncc(Cl)cc1N[C@@H](C)c1ccc(C(=O)N[C@@H](CC2CCCC2)C(=O)NCCF)s1 [Compound 271, (2S)-2-({5-[(1S)-1-[(5-chloro-2-methylpyridin-3-yl)amino]ethyl]thiophen-2-yl}formamido)-3-cyclopentyl-N-(2-fluoroethyl)propanamide] | 10
Cc1ncc(Cl)cc1N[C@@H](Cn1cccn1)c1ccc(C(=O)N[C@@H](CC2CCCC2)C(=O)NC2CC2)s1 [Compound 166, (2S)-2-({5-[(1S)-1-[(5-chloro-2-methylpyridin-3-yl)amino]-2-(1H-pyrazol-1-yl)ethyl]thiophen-2-yl}formamido)-3-cyclopentyl-N-cyclopropylpropanamide] | 7
Cc1ncc(Cl)cc1N[C@H](Cc1ccccc1)c1ccc(C(=O)N[C@@H](CC2CCCC2)C(=O)NC23CC(C2)C3)s1 [Compound 215, (2S)-N-{bicyclo[1.1.1]pentan-1-yl}-2-({5-[(1R)-1-[(5-chloro-2-methylpyridin-3-yl)amino]-2-phenylethyl]thiophen-2-yl}formamido)-3-cyclopentylpropanamide] | 101
Cc1ncc(Cl)cc1N[C@@H](C)c1ccc(C(=O)N[C@@H](CC23CCC(CC2)CC3)C(=O)NC2CC2)s1 [Compound 256, (2S)-3-{bicyclo[2.2.2]octan-1-yl}-2-({5-[(1S)-1-[(5-chloro-2-methylpyridin-3-yl)amino]ethyl]thiophen-2-yl}formamido)-N-cyclopropylpropanamide] | 6
